This is an account of results in patent US12239643B2, “Therapeutic agent for inflammatory diseases, autoimmune diseases, fibrotic diseases, and cancer diseases” (MEIJI SEIKA PHARMA CO., LTD., priority 2018, dated 2025).

A value given as a limit tells only on which side of the number the result lay.

The first experiment deals with PDE4. As to the kind of experiment: Evaluation of PDE4 inhibitory activity, scintillation proximity assay. It counts as biochemical. The following applies: scintillation proximity assay; class symbols of Evaluation 1; read-out: PDE4 Inhibitory Activity (concentration for the inhibition rate of 50%, IC50), Evaluation 1. Summed up: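 IC50 was derived from inhibition curves, referenced to an enzyme-free blank and a DMSO-only control. Compound, PDE4 preparation and tritiated cAMP reacted 120 min at RT in Tris-HCl buffer (pH 7.4) with MgCl2, EGTA and BSA; YSi-SPA beads with ZnSO4 bound product before scintillation counting.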
With `NS(=O)(=O)c1cc(-c2nccs2)c2oc(N3CC4CCCC(C3)N4)nc2c1` [Example 59, 2-(3,9-Diazabicyclo[3.3.1]nonan-3-yl)-7-(thiazol-2-yl)benzo[d]oxazole-5-sulfonamide], the IC50 was under 0.1 µM.
With `CCOC(=O)c1cc(-n2cccn2)c2oc(N3CC4COCC(C3)N4)nc2c1` [Example 92, Ethyl 2-(3-oxa-7,9-diazabicyclo[3.3.1]nonan-7-yl)-7-(1H-pyrazol-1-yl)benzo[d]oxazole-5-carboxylate], the IC50 is over 1 µM.
Same read-out and setting: in the case of `CN(C)C(=O)c1cc(-c2nccs2)c2oc(N3CC4CCC(C3)N4)nc2c1` [Example 94, 2-(3,8-Diazabicyclo[3.2.1]octan-3-yl)-N,N-dimethyl-7-(thiazol-2-yl)benzo[d]oxazole-5-carboxamide] it was under 0.1 µM.
Same read-out and setting: in the case of `FC(F)(F)Oc1ccc(-c2nccs2)c2oc(N3CC4CCC(C3)N4)nc12` [Example 28, 2-(3,8-Diazabicyclo[3.2.1]octan-3-yl)-7-(thiazol-2-yl)-4-(trifluoromethoxy)benzo[d]oxazole] it was under 0.1 µM; in that of `Clc1ccc(-c2nccs2)c2oc(N3CC4CCC(C3)N4)nc12` [Example 36, 2-(3,8-Diazabicyclo[3.2.1]octan-3-yl)-4-chloro-7-(thiazol-2-yl)benzo[d]oxazole], under 0.1 µM.
Same read-out and setting: the result for `N#CCOC(c1cc(-c2nccs2)c2oc(N3CC4CCC(C3)N4)nc2c1)C(F)(F)F` (stereo not drawn) [Example 153, 2-(1-(2-(3,8-Diazabicyclo[3.2.1]octan-3-yl)-7-(thiazol-2-yl)benzo[d]oxazol-5-yl)-2,2,2-trifluoroethoxy)acetonitrile] reads under 0.1 µM; that for `FC(F)(F)COC(c1cc(-c2nccs2)c2oc(N3CC4CC(C3)N4)nc2c1)C(F)(F)F` (stereo not drawn) [Example 151, 2-(3,6-Diazabicyclo[3.1.1]heptan-3-yl)-7-(thiazol-2-yl)-5-(2,2,2-trifluoro-1-(2,2,2-trifluoroethoxy)ethyl)benzo[d]oxazole], under 0.1 µM; that for `COc1cc(-c2nccs2)c2oc(N3CC4CC(C3)N4)nc2c1` [Example 61, 2-(3,6-Diazabicyclo[3.1.1]heptan-3-yl)-5-methoxy-7-(thiazol-2-yl)benzo[d]oxazole], under 0.1 µM.

Still in this experiment, the particulars now being: scintillation proximity assay; read-out: PDE4 Inhibitory Activity (Evaluation 1; concentration for the inhibition rate of 50%).
With `OC(c1cc(-c2cscn2)c2oc(N3CC4CCC(C3)N4)nc2c1OC(F)(F)F)C(F)F` (stereo not drawn) [Example 303, 1-(2-(3,8-Diazabicyclo[3.2.1]octan-3-yl)-7-(thiazol-4-yl)-4-(trifluoromethoxy)benzo[d]oxazol-5-yl)-2,2-difluoroethan-1-ol], the IC50 is under 0.1 µM.
Still for that read-out and setting: the result for `COC(C)(C)c1cc(-c2nccs2)c2oc(N3CC4CCCC(C3)N4)nc2c1OC(F)(F)F` [Example 200, 2-(3,9-Diazabicyclo[3.3.1]nonan-3-yl)-5-(2-methoxypropan-2-yl)-7-(thiazol-2-yl)-4-(trifluoromethoxy)benzo[d]oxazole] reads under 0.1 µM.
As to `CC(O)c1cc(-c2nccs2)c2oc(N3CC4CCC(C3)N4O)nc2c1OC(F)(F)F` (stereo not drawn) [Example 383, 3-(5-(1-Hydroxyethyl)-7-(thiazol-2-yl)-4-(trifluoromethoxy)benzo[d]oxazol-2-yl)-3,8-diazabicyclo[3.2.1]octan-8-ol], the IC50 was over 1 µM.
For `CCC(O)c1cc(-c2nccs2)c2oc(N3CC4CCC(C3)N4)nc2c1OC(F)(F)F` (stereo not drawn) [Example 204, 1-(2-(3,8-Diazabicyclo[3.2.1]octan-3-yl)-7-(thiazol-2-yl)-4-(trifluoromethoxy)benzo[d]oxazol-5-yl)propan-1-ol], the IC50 is under 0.1 µM.
The same measure, in the same setting: in the case of `O=C(O)c1cc(-c2nccs2)c2oc(N3CC4CC(C3)N4)nc2c1OC(F)(F)F` [Example 190, 2-(3,6-Diazabicyclo[3.1.1]heptan-3-yl)-7-(thiazol-2-yl)-4-(trifluoromethoxy)benzo[d]oxazole-5-carboxylic acid] it was over 1 µM; in that of `NC(=O)COC(c1ccc(-c2nccs2)c2oc(N3CC4CC(C3)N4)nc12)C(F)(F)F` (stereo not drawn) [Example 256, 2-(1-(2-(3,6-Diazabicyclo[3.1.1]heptan-3-yl)-7-(thiazol-2-yl)benzo[d]oxazol-4-yl)-2,2,2-trifluoroethoxy)acetamide], under 0.1 µM.
Still for that read-out and setting: the result for `FC(F)(/C=C/c1cccnc1)Oc1ccc(-c2nccs2)c2oc(N3CC4CC(C3)N4)nc12` [Example 406, (E)-2-(3,6-diazabicyclo[3.1.1]heptan-3-yl)-4-((1,1-difluoro-3-(pyridin-3-yl)allyl)oxy)-7-(thiazol-2-yl)benzo[d]oxazole] reads under 0.1 µM.
Same read-out and setting: the result for `OC(c1cc(-c2cscn2)c2oc(N3CC4CCC(C3)N4)nc2c1OC(F)(F)F)C(F)F` (stereo not drawn) [Example 302, 1-(2-(3,8-Diazabicyclo[3.2.1]octan-3-yl)-7-(thiazol-4-yl)-4-(trifluoromethoxy)benzo[d]oxazol-5-yl)-2,2-difluoroethan-1-ol] reads under 0.1 µM.
For the molecule `CC(O)C(F)(F)Oc1ccc(-c2cscn2)c2oc(N3CC4CCC(C3)N4)nc12` (stereo not drawn) [Example 310, 1-((2-(3,8-Diazabicyclo[3.2.1]octan-3-yl)-7-(thiazol-4-yl)benzo[d]oxazol-4-yl)oxy)-1,1-difluoropropan-2-ol], the IC50 is under 0.1 µM.
Same read-out and setting: in the case of `CC(C)(O)C(C)(C)OC(c1ccc(-c2nccs2)c2oc(N3CC4CC(C3)N4)nc12)C(F)(F)F` (stereo not drawn) [Example 280, 3-(1-(2-(3,6-Diazabicyclo[3.1.1]heptan-3-yl)-7-(thiazol-2-yl)benzo[d]oxazol-4-yl)-2,2,2-trifluoroethoxy)-2,3-dimethylbutan-2-ol] it was under 0.1 µM.
On the same count and under the same terms, the result for `COC(C)c1ccc(-c2nccs2)c2oc(N3CC4CC(C3)N4)nc12` (stereo not drawn) [Example 241, 2-(3,6-Diazabicyclo[3.1.1]heptan-3-yl)-4-(1-methoxyethyl)-7-(thiazol-2-yl)benzo[d]oxazole] reads under 0.1 µM; that for `CC(C)(O)C(F)(F)OC(c1ccc(-c2nccs2)c2oc(N3CC4CC(C3)N4)nc12)C(F)(F)F` (stereo not drawn) [Example 257, 1-(1-(2-(3,6-Diazabicyclo[3.1.1]heptan-3-yl)-7-(thiazol-2-yl)benzo[d]oxazol-4-yl)-2,2,2-trifluoroethoxy)-1,1-difluoro-2-methylpropan-2-ol], under 0.1 µM.
On to `CC(C)(O)C(F)(F)Oc1ccc(-c2nccs2)c2oc(N3CC4CC(C3)N4O)nc12` [Example 371, 3-(4-(1,1-Difluoro-2-hydroxy-2-methylpropoxy)-7-(thiazol-2-yl)benzo[d]oxazol-2-yl)-3,6-diazabicyclo[3.1.1]heptan-6-ol], for which the IC50 was under 0.1 µM.
On the same count and under the same terms, the result for `O=C(c1cc(-c2nccs2)c2oc(N3CC4CCC(C3)N4)nc2c1OC(F)(F)F)N1CC(O)(C(F)(F)F)C1` [Example 194, (2-(3,8-Diazabicyclo[3.2.1]octan-3-yl)-7-(thiazol-2-yl)-4-(trifluoromethoxy)benzo[d]oxazol-5-yl)(3-hydroxy-3-(trifluoromethyl)azetidin-1-yl)methanone] reads 0.1 to 1 µM.
Take `CC(C)(O)COC(c1ccc(-c2cscn2)c2oc(N3CC4CC(C3)N4)nc12)C(F)(F)F` (stereo not drawn) [Example 284, 1-(1-(2-(3,6-Diazabicyclo[3.1.1]heptan-3-yl)-7-(thiazol-4-yl)benzo[d]oxazol-4-yl)-2,2,2-trifluoroethoxy)-2-methylpropan-2-ol]: the IC50 is under 0.1 µM.
On the same count and under the same terms, in the case of `O=S1(=O)CCC(Oc2ccc(-c3nccs3)c3oc(N4CC5CC(C4)N5)nc23)CC1` [Example 314, 4-((2-(3,6-Diazabicyclo[3.1.1]heptan-3-yl)-7-(thiazol-2-yl)benzo[d]oxazol-4-yl)oxy)tetrahydro-2H-thiopyran 1,1-dioxide] it was under 0.1 µM.
